# Values joined by “and” are separate entries in the source; they are usually repeats but may differ in a detail not shown here. Equal values may be shown once. After the bases stand the sugars from the 5' end (letter, count) and the backbone: PS all phosphorothioate, else s phosphorothioate and o phosphodiester by linkage. Methylation of C is not given here. e = 2'-O-(2-methoxyethyl) (MOE); l = locked nucleic acid (LNA); k = constrained ethyl (cEt); d = 2'-deoxy (DNA)
# How the values were obtained:
# MYH7 = settings: ASO, CC-2580, 5 µM
# ANGPTL2 = settings: ASO
# KRAS = settings: ASO
Sequence,target mRNA inhibition (ANGPTL2; 5 µM),target mRNA inhibition (ANGPTL2; 25 µM),also measured
"AAAGGATGTAAGATGCA (sugars l4 d9 l4, PS)",–,–,target mRNA inhibition (MYH7): 88% and 89%
"AAGAAGTTAACAGAGCCATC (sugars l1 d15 l4, PS)",42.1%,45.8%,–
"AAGAGAGAAGGCAGTGAGAG (sugars l2 d16 l2, PS)",24.8%,10.9%,–
"AAGTTGATAGTTTATCTC (sugars l4 d11 l3, PS)",91.6%,91.4%,–
"ACCCTCCATCCTTCACC (sugars l2 d13 l2, PS)",34.7%,54.5%,–
"ACCCTCCATCCTTCACC (sugars l3 d12 l2, PS)",38.9%,44%,–
"ACCCTCCATCCTTCACC (sugars l4 d11 l2, PS)",36.5%,52.7%,–
"AGTAGCCTTCTGACCAA (sugars l1 d13 l3, PS)",48.5%,56.5%,–
"AGTTGATAGTTTATCTCCT (sugars l2 d15 l2, PS)",59.7%,67.4%,–
"ATAGTGGGCAGAGGGGG (sugars l1 d14 l2, PS)",21.6%,13.4%,–
"ATCAATAGGCAGACAGGC (sugars l2 d14 l2, PS)",50.1%,65.4%,–
"ATGGTGGTTATTCTTTGTGA (sugars l1 d17 l2, PS)",33%,35.7%,–
"ATTGTGGGTTGGAGGGC (sugars l1 d14 l2, PS)",30.3%,18.7%,–
"ATTTTGAGATTCCCCCAAA (sugars l1 d14 l4, PS)",7.37%,-8.2%,–
"CAAAGGCATTTCAGTTCC (sugars l1 d14 l3, PS)",56.8%,70.4%,–
"CAGCCAGTAAATGTTCTCCA (sugars l1 d17 l2, PS)",42.8%,38%,–
"CAGCTTGGCGATGATCT (sugars dlddlddddddlddlll, PS)",–,–,target mRNA inhibition (MYH7): 50% and 32%
"CAGCTTGGCGATGATCT (sugars l2 d8 l1 d2 l4, PS)",–,–,target mRNA inhibition (MYH7): 37% and 35%
"CAGCTTGGCGATGATCT (sugars l2 d8 l1 d3 l3, PS)",–,–,target mRNA inhibition (MYH7): 48% and 29%
"CAGCTTGGCGATGATCT (sugars l2 d9 l1 d2 l3, PS)",–,–,target mRNA inhibition (MYH7): 59% and 54%
"CAGCTTGGCGATGATCT (sugars l2 d11 l1 d1 l2, PS)",–,–,target mRNA inhibition (MYH7): 66% and 46%
"CAGCTTGGCGATGATCT (sugars l3 d9 l1 d2 l2, PS)",–,–,target mRNA inhibition (MYH7): 64% and 46%

Sequence,target mRNA inhibition (ANGPTL2; 5 µM),target mRNA inhibition (ANGPTL2; 25 µM),also measured
"CAGCTTGGCGATGATCT (sugars lddldddddddldldll, PS)",–,–,target mRNA inhibition (MYH7): 14% and 8%
"CAGCTTGGCGATGATCT (sugars lddlddddddldldlll, PS)",–,–,target mRNA inhibition (MYH7): 20% and 19%
"CAGCTTGGCGATGATCT (sugars lddlddddddlldddll, PS)",–,–,target mRNA inhibition (MYH7): -44% and -36%
"CAGCTTGGCGATGATCT (sugars lddldddllddddddll, PS)",–,–,target mRNA inhibition (MYH7): 23% and 16%
"CAGCTTGGCGATGATCT (sugars lddldldddldddddll, PS)",–,–,target mRNA inhibition (MYH7): 12% and -4%
"CAGCTTGGCGATGATCT (sugars lddlldddddlddddll, PS)",–,–,target mRNA inhibition (MYH7): 31% and 7%
"CAGCTTGGCGATGATCT (sugars ldldddddddldlddll, PS)",–,–,target mRNA inhibition (MYH7): 9% and -10%
"CAGCTTGGCGATGATCT (sugars ldldddddddlldldll, PS)",–,–,target mRNA inhibition (MYH7): 38% and 34%
"CAGCTTGGCGATGATCT (sugars ldldlldlddddddlll, PS)",–,–,target mRNA inhibition (MYH7): 30% and 32%
"CAGCTTGGCGATGATCT (sugars ldllddlddldddddll, PS)",–,–,target mRNA inhibition (MYH7): 28% and 5%
"CAGCTTGGCGATGATCT (sugars llddddddddlldldll, PS)",–,–,target mRNA inhibition (MYH7): 14% and 18%
"CAGCTTGGCGATGATCT (sugars lldddddddldddldll, PS)",–,–,target mRNA inhibition (MYH7): 5% and -8%
"CAGCTTGGCGATGATCT (sugars llddlddlddddddlll, PS)",–,–,target mRNA inhibition (MYH7): 9% and -16%
"CAGCTTGGCGATGATCT (sugars lldlldddddlddddll, PS)",–,–,target mRNA inhibition (MYH7): 34% and 16%
"CAGGCCAACACTAACTC (sugars l1 d12 l4, PS)",66.9%,82.5%,–
"CAGGTCCTTGTACTTGC (sugars l2 d13 l2, PS)",49.2%,62%,–
"CATTTTGAGATTCCCCCA (sugars l1 d15 l2, PS)",22.1%,21.1%,–
"CCAACACTAACTCGGC (sugars l2 d12 l2, PS)",36%,54.3%,–
"CCACCCATTTAGCCTTC (sugars l1 d14 l2, PS)",46.7%,42.7%,–
"CCAGAGCTAATCAGTGG (sugars l2 d13 l2, PS)",39.4%,48.8%,–
"CCATTTTGAGATTCCCCCAA (sugars l3 d15 l2, PS)",44.4%,43.9%,–
"CCCACAATGAGACTGGT (sugars l2 d13 l2, PS)",30.2%,30.4%,–

Sequence,target mRNA inhibition (ANGPTL2; 5 µM),target mRNA inhibition (ANGPTL2; 25 µM),also measured
"CTAGACATACCATCTA (sugars l3 d10 l3, PS)",34.9%,40%,–
"CTAGTGTGCTCTGGAGC (sugars l1 d14 l2, PS)",36.6%,65.7%,–
"CTCCAAATTAAATCCG (sugars l4 d9 l3, PS)",22.4%,32.3%,–
"CTGGAAAGAAGGGGCTGTG (sugars l1 d16 l2, PS)",38.8%,30.4%,–
"CTGGGTTATATTCTCTT (sugars l2 d12 l3, PS)",39.4%,43.5%,–
"CTGGTTGATGATGCGGTT (sugars l1 d15 l2, PS)",56%,66%,–
"CTTGGCAATGATCTCATCC (sugars l1 d11 l1 d2 l4, PS)",–,–,target mRNA inhibition (MYH7): 54% and 33%
"GAAGAAAAGAGCACATGG (sugars l3 d11 l4, PS)",33.2%,9.98%,–
"GCCAACACTAACTCGGC (sugars l1 d14 l2, PS)",30.6%,31.4%,–
"GCTCCGGTAATGGCCC (sugars l1 d12 l3, PS)",25.9%,29.2%,–
"GCTCTCATAATCCTAC (sugars l2 d11 l3, PS)",59.2%,65.4%,–
"GTCATAGAAACTACCCC (sugars l1 d13 l3, PS)",29.1%,68.1%,–
"GTGGGCAAGAGGGATGC (sugars l1 d14 l2, PS)",35%,32.2%,–
"GTTATGCCCATTTCTAGG (sugars l1 d15 l2, PS)",47.7%,58.8%,–
"GTTCGTCAGCCAGTAA (sugars l2 d11 l3, PS)",46.5%,75.5%,–
"GTTGATAGTTTATCTCC (sugars l3 d12 l2, PS)",87.4%,88.8%,–
"GTTGATAGTTTATCTCCT (sugars l1 d14 l3, PS)",64.1%,76.7%,–
"GTTGATGATGCGGTTGTAG (sugars l1 d16 l2, PS)",22.9%,34%,–
"TAATAGGCACACACCCAGAC (sugars l1 d17 l2, PS)",27.2%,43.3%,–
"TAATGGCTGAGATGCAG (sugars l4 d11 l2, PS)",36%,52.6%,–
"TAATTCACCGCCAAATTAC (sugars l3 d13 l3, PS)",27.6%,36.8%,–
"TCCGGTAATGGCCCC (sugars l1 d12 l2, PS)",34%,51.8%,–

Sequence,target mRNA inhibition (ANGPTL2; 5 µM),target mRNA inhibition (ANGPTL2; 25 µM),also measured
"TGTGCAATGGTGACAA (sugars k3 d10 k3, PS)",–,–,"target mRNA inhibition (KRAS; A431, 2 µM): 28%"
"TGTTTAAAAAAAAAAT (sugars k3 d10 k3, PS)",–,–,"target mRNA inhibition (KRAS; A431, 2 µM): 2%"
"TGTTTATGCAATGTTA (sugars k3 d10 k3, PS)",–,–,"target mRNA inhibition (KRAS; A431, 0.125 µM): 49% and 53%; target mRNA inhibition (KRAS; A431, 0.185 µM): 21% and 0%; target mRNA inhibition (KRAS; A431, 0.556 µM): 40% and 27%; target mRNA inhibition (KRAS; A431, 1.667 µM): 53%; target mRNA inhibition (KRAS; A431, 5 µM): 79% and 68%; target mRNA inhibition (KRAS; NCI-H460, 0.037 µM): 41%"
"TGTTTATGCAATGTTA (sugars kkddddddddddkeke, PS)",–,–,"target mRNA inhibition (KRAS; A431, 2 µM): 23%"
"TGTTTATGCAATGTTA (sugars kkdddddddddkdkdk, PS)",–,–,"target mRNA inhibition (KRAS; A431, 2 µM): 46%"
"TGTTTGGAAATGTTATCT (sugars l3 d11 l4, PS)",80.9%,87.1%,–
"TTAAAAAAAAAATTAA (sugars k3 d10 k3, PS)",–,–,"target mRNA inhibition (KRAS; A431, 2 µM): 0%"
"TTAATTACTTATGCAG (sugars k3 d10 k3, PS)",–,–,"target mRNA inhibition (KRAS; A431, 2 µM): 32%"
"TTACTTATGCAGAGAA (sugars k3 d10 k3, PS)",–,–,"target mRNA inhibition (KRAS; A431, 2 µM): 46%"
"TTAGTGATTAGGTCAA (sugars k3 d9 k3 e1, PS)",–,–,"target mRNA inhibition (KRAS; A431, 2 µM): 53%"
"TTAGTGGAAGGTGTTGG (sugars l3 d12 l2, PS)",51.1%,62.8%,–
"TTATGCAATGTTAATT (sugars k3 d10 k3, PS)",–,–,"target mRNA inhibition (KRAS; A431, 2 µM): 3%"
"TTATGCACTCGGTTCTCC (sugars l1 d15 l2, PS)",30.6%,46.6%,–
"TTGATGATGCGGTTGTA (sugars l3 d12 l2, PS)",76.5%,83.1%,–
"TTGATGATGCGGTTGTAG (sugars l3 d13 l2, PS)",70.7%,77.8%,–
"TTGATTTGTCAGCAGG (sugars kkdddddddddkekek, PS)",–,–,"target mRNA inhibition (KRAS; A431, 2 µM): 23% and 22%"
"TTGGTTCGTCAGCCAG (sugars l1 d12 l3, PS)",49.1%,65%,–
"TTGTATCTTGTTGAGC (sugars k3 d10 k3, PS)",–,–,"target mRNA inhibition (KRAS; A431, 2 µM): 50%"
"TTGTGCAATGGTGACA (sugars k3 d10 k3, PS)",–,–,"target mRNA inhibition (KRAS; A431, 2 µM): 29%"
"TTTCTAAACTCTCACCCTG (sugars l1 d15 l3, PS)",26.4%,25.1%,–

# Reference: the OligoGym collection
